For data set [1], the system named is adult female Tetranychus kanzawai from Okayama Prefecture. In words: Efficacy test against Tetranychus kanzawai (spray on kidney bean plant). The settings on record: 500 ppm emulsion sprayed. The data set is classed as in vivo. The procedure:
Ten adult female Tetranychus kanzawai acarus from Okayama Prefecture were inoculated onto the first leaves of a kidney bean plant planted in a No. 3 pot 7 to 10 days after germination. Next, an emulsion was prepared having the formula indicated in the aforementioned Preparation example 2. This emulsion was diluted with water to a compound concentration of 500 ppm or 125 ppm after which the diluted liquids were sprayed onto the kidney bean plant. The kidney bean plant was then placed in a temperature-controlled room at a temperature of 25° C. and humidity of 65%. The life and death of the adult insects were investigated 3 days after the spraying. In addition, the development from eggs laid to adult was investigated 14 days after the spraying.
The aforementioned test was carried out on the emulsion containing the Compound No. 2-1 at 500 ppm. As a result, the insect mortality rates after 3 days and 14 days for the compound were 90% or higher.

With `CCN(Oc1ccc2ncsc2c1)C(=O)N=S(C)(=O)c1ccccc1` (stereo not drawn) [Compound No. 2-1], the “insect mortality rate after 3 days” value in data set [1] (3 days after spraying) is not below 90%. For the same compound, in data set [1] (14 days after spraying), the “insect mortality rate after 14 days” value is listed as not below 90%.

As usually defined, the melting point is the temperature, or range, at which the solid turns liquid. `CC(C)(NC(=O)NOc1ccc2ncsc2c1)c1ccccn1`: the melting point lay within 164 to 166 °C.
